Results from ChEMBL document CHEMBL4311993, “Structure-activity relationship study of NPP1 inhibitors based on uracil-N1-(methoxy)ethyl-β-phosphate scaffold” (Eur J Med Chem, 2019).
Active and inactive are the calls of the source. No cut-off for these calls is given here.

What was measured:
[1] = biological target: P2Y purinoceptor 2 (Homo sapiens) (UniProt P41231); experiment: Antagonist activity at human P2Y2 receptor expressed in AD293 cells assessed as inhibition of UTP-induced inositol-1-phosphate accumulation at 100 uM; type: functional, cell-based
Chain of P2Y purinoceptor 2 (Homo sapiens) (P41231 whole entry): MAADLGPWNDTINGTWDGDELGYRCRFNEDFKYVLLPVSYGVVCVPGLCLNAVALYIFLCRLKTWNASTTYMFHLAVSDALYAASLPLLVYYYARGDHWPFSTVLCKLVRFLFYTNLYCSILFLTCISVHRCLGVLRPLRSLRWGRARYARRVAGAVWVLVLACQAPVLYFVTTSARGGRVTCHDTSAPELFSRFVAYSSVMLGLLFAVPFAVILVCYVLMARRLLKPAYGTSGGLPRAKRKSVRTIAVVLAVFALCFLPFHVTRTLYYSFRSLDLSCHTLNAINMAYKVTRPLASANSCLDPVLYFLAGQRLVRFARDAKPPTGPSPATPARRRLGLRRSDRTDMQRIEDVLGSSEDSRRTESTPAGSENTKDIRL

[2] = biological target: T1, Ectonucleotide pyrophosphatase/phosphodiesterase family member 1 (Homo sapiens) (UniProt P22413); experiment: Inhibition of human NPP1 expressed in COS7 cell membranes at 100 uM using pNP-TMP as substrate preincubated for 3 mins followed by substrate addition and measured after 15 mins relative to control
T1 sequence (whole entry): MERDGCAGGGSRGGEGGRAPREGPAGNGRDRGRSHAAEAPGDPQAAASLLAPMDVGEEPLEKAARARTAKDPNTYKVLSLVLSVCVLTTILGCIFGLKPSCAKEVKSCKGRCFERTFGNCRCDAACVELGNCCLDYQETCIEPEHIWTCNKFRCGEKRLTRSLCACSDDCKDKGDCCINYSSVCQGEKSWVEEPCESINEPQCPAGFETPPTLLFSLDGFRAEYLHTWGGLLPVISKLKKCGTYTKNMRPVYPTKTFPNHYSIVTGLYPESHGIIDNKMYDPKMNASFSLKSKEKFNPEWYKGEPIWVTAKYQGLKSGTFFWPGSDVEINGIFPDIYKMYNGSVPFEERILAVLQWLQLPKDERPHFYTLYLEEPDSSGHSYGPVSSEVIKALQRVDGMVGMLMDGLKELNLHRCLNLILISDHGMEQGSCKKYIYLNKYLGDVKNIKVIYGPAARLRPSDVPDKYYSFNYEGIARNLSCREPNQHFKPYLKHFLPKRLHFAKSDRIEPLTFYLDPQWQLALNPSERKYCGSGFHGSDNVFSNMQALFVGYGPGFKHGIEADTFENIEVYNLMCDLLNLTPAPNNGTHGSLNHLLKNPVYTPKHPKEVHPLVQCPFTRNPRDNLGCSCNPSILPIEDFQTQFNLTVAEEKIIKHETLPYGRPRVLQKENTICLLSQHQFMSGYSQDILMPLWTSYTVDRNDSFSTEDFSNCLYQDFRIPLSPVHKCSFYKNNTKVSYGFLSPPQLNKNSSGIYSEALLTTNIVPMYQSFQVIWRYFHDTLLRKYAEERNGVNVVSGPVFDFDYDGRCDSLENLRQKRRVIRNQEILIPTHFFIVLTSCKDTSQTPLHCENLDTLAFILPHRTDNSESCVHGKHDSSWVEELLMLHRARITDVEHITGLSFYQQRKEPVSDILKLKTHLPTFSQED

[3] = biological target: T2, Ectonucleotide pyrophosphatase/phosphodiesterase family member 3 (Homo sapiens) (UniProt O14638); experiment: Inhibition of human NPP3 expressed in COS7 cell membranes at 100 uM using pNP-TMP as substrate preincubated for 3 mins followed by substrate addition and measured after 15 mins
T2 sequence (whole entry): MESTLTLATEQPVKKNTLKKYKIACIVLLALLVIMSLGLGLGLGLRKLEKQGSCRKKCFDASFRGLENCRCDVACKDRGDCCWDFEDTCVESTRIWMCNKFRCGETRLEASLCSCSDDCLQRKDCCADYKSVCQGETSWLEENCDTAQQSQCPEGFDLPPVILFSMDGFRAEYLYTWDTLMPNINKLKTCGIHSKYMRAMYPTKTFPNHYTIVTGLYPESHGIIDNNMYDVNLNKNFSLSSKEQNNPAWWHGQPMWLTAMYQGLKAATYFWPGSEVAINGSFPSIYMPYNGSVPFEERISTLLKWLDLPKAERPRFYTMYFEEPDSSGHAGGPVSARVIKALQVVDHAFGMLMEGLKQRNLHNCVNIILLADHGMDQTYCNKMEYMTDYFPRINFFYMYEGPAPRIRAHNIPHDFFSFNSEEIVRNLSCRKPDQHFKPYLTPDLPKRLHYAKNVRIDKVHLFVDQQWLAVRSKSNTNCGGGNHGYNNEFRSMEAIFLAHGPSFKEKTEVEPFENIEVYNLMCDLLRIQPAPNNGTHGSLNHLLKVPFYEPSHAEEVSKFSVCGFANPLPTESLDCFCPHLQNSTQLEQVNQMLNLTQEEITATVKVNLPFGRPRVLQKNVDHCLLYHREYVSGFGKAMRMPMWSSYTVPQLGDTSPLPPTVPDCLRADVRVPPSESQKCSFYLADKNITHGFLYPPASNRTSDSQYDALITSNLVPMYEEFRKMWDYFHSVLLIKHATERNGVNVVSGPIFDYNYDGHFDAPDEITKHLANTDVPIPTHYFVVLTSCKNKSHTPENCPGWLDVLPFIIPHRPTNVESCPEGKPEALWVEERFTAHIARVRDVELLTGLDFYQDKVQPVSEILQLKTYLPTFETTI

[4] = biological target: T1, Ectonucleotide pyrophosphatase/phosphodiesterase family member 1 (Homo sapiens); experiment: Inhibition of human NPP1 expressed in COS7 cell membranes at 100 uM using pNP-TMP as substrate preincubated for 3 mins followed by substrate addition and measured after 15 mins
[5] = biological target: T3, Ectonucleotide pyrophosphatase/phosphodiesterase family member 1 (Homo sapiens, UniProt P22413); experiment: Inhibition of human NPP1 expressed in COS7 cell membranes using pNP-TMP as substrate preincubated for 3 mins followed by substrate addition and measured after 15 mins by Dixon plot analysis
T3 sequence (P22413 whole entry): T1 sequence (whole entry)

[6] = biological target: T2, Ectonucleotide pyrophosphatase/phosphodiesterase family member 3 (Homo sapiens); experiment: Inhibition of human NPP3 expressed in COS7 cell membranes at 100 uM using pNP-TMP as substrate preincubated for 3 mins followed by substrate addition and measured after 15 mins relative to control
[7] = biological target: T1, Ectonucleotide pyrophosphatase/phosphodiesterase family member 1 (Homo sapiens); experiment: Inhibition of NPP-1 in human articular chondrocytes at 100 uM using p-Nph-5'-TMP as substrate after 3 hrs by […] relative to control; type: cell-based
[8] = Cytotoxicity against human primary chondrocytes at 100 uM after 24 hrs by XTT assay
Homo sapiens = species: Homo sapiens; experiment: Inhibition of alkaline phosphatase in human primary chondrocyte at 100 uM using p-nitrophenyl phosphate as substrate after 30 mins by […] relative to control
[9] = biological target: P2Y purinoceptor 2 (Homo sapiens) (UniProt P41231); experiment: Partial agonist activity at human P2Y2 receptor expressed in AD293 cells assessed as inositol-1-phosphate accumulation at 100 uM; type: functional, cell-based

Row | Structure (SMILES) | inhibition [3] | Activity [9] | inhibition [1] | inhibition [2] | inhibition [4] | Ki [5] | inhibition [6] | inhibition [7] | Activity [8] | inhibition (Homo sapiens)
1 | O=c1ccn(COCCOP(=S)(S)OP(=O)(O)C(Cl)(Cl)P(=O)(O)O)c(=O)[nH]1 (stereo not given) | – | – | inactive | 96% | – | 730 nM | 21% | 96% | Non-Toxic | < 10%
2 | O=c1ccn(COCCOP(=S)(S)OP(=O)(O)CP(=O)(O)O)c(=O)[nH]1 (stereo not given) | – | – | inactive | 96% | – | 940 nM | 24% | – | Non-Toxic | < 10%
3 | O=c1ccn(COCCO[PH](=O)O)c(=O)[nH]1 | inactive | – | inactive | – | inactive | – | – | – | – | –

Now from value to molecule, other results behind:

Row | inhibition [3] | Activity [9] | Structure (SMILES) | inhibition [1] | inhibition [2] | inhibition [4] | Ki [5] | inhibition [6] | inhibition [7] | Activity [8] | inhibition (Homo sapiens)
4 | Active | – | O=c1ccn(COCCOP(=O)(O)C(Cl)(Cl)P(=O)(O)O)c(=O)[nH]1 | inactive | 51% | – | – | – | – | – | –
5 | inactive | – | O=c1ccn(COCCOP(=O)(O)O)c(=O)[nH]1 | inactive | – | inactive | – | – | – | – | –
6 | Active | Active | O=c1ccn(COCCOP(=O)(O)CP(=O)(O)O)c(=O)[nH]1 | – | 54% | – | – | – | – | – | –
